Drawing on ChEMBL document CHEMBL1909046, “DrugMatrix in vitro pharmacology data”, this text covers IC50 and Ki for three compounds.

Broadly, the IC50 is the concentration that inhibits the measured activity by half. A word on the Ki: it is the equilibrium dissociation constant of an inhibitor or competing ligand from its target.

Chain of Melanocortin receptor 4 (P32245 whole entry): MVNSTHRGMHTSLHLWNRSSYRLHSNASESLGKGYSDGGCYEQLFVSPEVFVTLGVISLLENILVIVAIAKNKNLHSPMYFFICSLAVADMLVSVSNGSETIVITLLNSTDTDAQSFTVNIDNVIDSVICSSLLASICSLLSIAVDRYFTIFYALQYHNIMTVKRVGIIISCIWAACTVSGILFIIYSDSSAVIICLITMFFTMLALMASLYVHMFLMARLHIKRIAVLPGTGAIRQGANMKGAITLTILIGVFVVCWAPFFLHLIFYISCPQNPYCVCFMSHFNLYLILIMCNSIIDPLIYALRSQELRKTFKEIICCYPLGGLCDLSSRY

The first assay deals with Beta-1 adrenergic receptor (Homo sapiens, UniProt P08588). The assay is described as follows: DRUGMATRIX: Adrenergic beta1 radioligand binding (ligand: [125I] Cyanopindolol). The assay is classed as cell membranes, CHO-K1, Membrane. The note with it: cho-k1; Not Active = under 50% inhibition at 10 µM.
Chain of Beta-1 adrenergic receptor (P08588 whole entry): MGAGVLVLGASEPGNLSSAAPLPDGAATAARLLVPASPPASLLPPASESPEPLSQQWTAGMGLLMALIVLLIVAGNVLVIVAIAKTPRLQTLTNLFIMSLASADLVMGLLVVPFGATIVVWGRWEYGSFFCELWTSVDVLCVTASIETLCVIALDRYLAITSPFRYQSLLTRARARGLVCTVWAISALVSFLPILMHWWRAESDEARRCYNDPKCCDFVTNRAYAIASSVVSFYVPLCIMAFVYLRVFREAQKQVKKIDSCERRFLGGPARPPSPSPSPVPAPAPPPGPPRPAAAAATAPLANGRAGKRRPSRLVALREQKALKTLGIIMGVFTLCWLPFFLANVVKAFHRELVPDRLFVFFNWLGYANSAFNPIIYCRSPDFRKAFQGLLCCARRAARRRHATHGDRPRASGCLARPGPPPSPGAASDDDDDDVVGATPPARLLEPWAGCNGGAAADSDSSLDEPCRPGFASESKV
Take OXALIPLATIN: the IC50 result was “Not Active” and the Ki entry was “Not Active”.
Turning to `CCCCCCCCCc1ccc(O)cc1` [4-NONYLPHENOL], the IC50 result is “Not Active”.
The same measure, in the same setting: then `c1ccc2c(c1)cc1ccc3cccc4ccc2c1c34`, with “Not Active”.

Tested on in a further assay: not listed separately
The assay is described as follows: DRUGMATRIX: beta-Lactamase enzyme inhibition (substrate: Nitrocefin). Further details: species or system Bacillus cereus. The settings on record: Not Active = under 50% inhibition at 10 µM.
As for OXALIPLATIN, the IC50 entry was “Not Active” and the Ki result was “Not Active”.
As to `CCCCCCCCCc1ccc(O)cc1` [4-NONYLPHENOL], the IC50 result was “Not Active” and the Ki entry is listed as “Not Active”.

The same assay, now with this note: Not Active = under 50% inhibition at 10 µM; read-out: IC50.
As to `c1ccc2c(c1)cc1ccc3cccc4ccc2c1c34`, the IC50 worked out at 20.7 µM.

In another assay the target is T1, 5-hydroxytryptamine receptor 2C (Homo sapiens, UniProt P28335).
T1 sequence (P28335 whole entry): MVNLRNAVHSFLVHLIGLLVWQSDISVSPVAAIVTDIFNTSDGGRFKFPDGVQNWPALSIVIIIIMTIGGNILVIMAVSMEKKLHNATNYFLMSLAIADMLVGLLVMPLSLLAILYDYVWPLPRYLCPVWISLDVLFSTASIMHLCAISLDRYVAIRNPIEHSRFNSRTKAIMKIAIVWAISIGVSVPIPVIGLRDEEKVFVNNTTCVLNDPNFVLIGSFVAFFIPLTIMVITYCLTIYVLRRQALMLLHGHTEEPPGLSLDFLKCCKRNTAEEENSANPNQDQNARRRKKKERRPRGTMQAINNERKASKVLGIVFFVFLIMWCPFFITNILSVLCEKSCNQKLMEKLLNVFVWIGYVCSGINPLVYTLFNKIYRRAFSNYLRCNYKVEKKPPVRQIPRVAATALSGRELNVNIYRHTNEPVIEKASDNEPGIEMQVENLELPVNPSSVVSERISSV
The assay is described as follows: DRUGMATRIX: Serotonin (5-Hydroxytryptamine) 5-HT2C radioligand binding (ligand: [3H] Mesulergine). It is filed as cell membranes, CHO-K1, Membrane. The settings on record: Not Active = under 50% inhibition at 10 µM; read-out: IC50.
As to `CCCCCCCCCc1ccc(O)cc1` [4-NONYLPHENOL], the IC50 was 2.57 µM.

Staying with this assay, now noted: Not Active = under 50% inhibition at 10 µM; read-out: Ki.
As for `CCCCCCCCCc1ccc(O)cc1` [4-NONYLPHENOL], the Ki amounted to 1.35 µM.

The same assay, now with this note: cho-k1; Not Active = under 50% inhibition at 10 µM.
Consider OXALIPLATIN, for which the IC50 entry is “Not Active” and the Ki result was “Not Active”.
Turning to `c1ccc2c(c1)cc1ccc3cccc4ccc2c1c34`, the IC50 entry was “Not Active”.

Tested on in a further assay: not listed separately
The assay is described as follows: DRUGMATRIX: Sigma2 radioligand binding (ligand: [3H] Ifenprodil). It is filed as cell membranes, Rattus norvegicus, Wistar, Brain, Membrane. The settings on record: Not Active = under 50% inhibition at 10 µM.
Turning to OXALIPLATIN, the IC50 result is recorded as “Not Active” and the Ki result is “Not Active”.
With `CCCCCCCCCc1ccc(O)cc1` [4-NONYLPHENOL], the IC50 entry was “Not Active” and the Ki result was “Not Active”.
Take `c1ccc2c(c1)cc1ccc3cccc4ccc2c1c34`: the IC50 entry is reported as “Not Active” and the inhibition constant (Ki) result is reported as “Not Active”.

The next assay addresses T2, D(4) dopamine receptor (Homo sapiens, UniProt P21917).
T2 sequence (P21917 whole entry): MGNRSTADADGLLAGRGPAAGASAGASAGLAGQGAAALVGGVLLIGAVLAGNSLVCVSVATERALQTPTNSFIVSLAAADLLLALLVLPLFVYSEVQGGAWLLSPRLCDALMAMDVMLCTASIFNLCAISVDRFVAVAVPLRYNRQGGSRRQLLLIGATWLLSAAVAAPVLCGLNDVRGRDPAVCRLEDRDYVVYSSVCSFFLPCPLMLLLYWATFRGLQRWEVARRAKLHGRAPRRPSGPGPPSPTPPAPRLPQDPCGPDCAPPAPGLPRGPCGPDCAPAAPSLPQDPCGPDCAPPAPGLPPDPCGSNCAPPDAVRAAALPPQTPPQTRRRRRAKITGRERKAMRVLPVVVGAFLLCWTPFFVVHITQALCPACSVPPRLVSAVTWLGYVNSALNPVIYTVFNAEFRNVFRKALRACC
The assay is described as follows: DRUGMATRIX: Dopamine D4.2 radioligand binding (ligand: [3H] Spiperone). The assay is classed as cell membranes, CHO-K1, Membrane. The settings on record: cho-k1; Not Active = under 50% inhibition at 10 µM.
As to OXALIPLATIN, the IC50 result is listed as “Not Active” and the Ki result is reported as “Not Active”.
In the case of `CCCCCCCCCc1ccc(O)cc1` [4-NONYLPHENOL], the IC50 result is on record as “Not Active”.
For the compound `c1ccc2c(c1)cc1ccc3cccc4ccc2c1c34`, the IC50 result is “Not Active”.

Tested on in the next assay: not listed separately
The assay is described as follows: DRUGMATRIX: Leukotriene, BLT (LTB4) radioligand binding (ligand: [3H]LTB4). The assay is classed as cell membranes, Membrane. The settings on record: u-937; Not Active = under 50% inhibition at 10 µM.
As for OXALIPLATIN, the IC50 result is listed as “Not Active” and the Ki entry was “Not Active”.
On to `CCCCCCCCCc1ccc(O)cc1` [4-NONYLPHENOL], for which the IC50 entry is recorded as “Not Active” and the Ki result is recorded as “Not Active”.
On to `c1ccc2c(c1)cc1ccc3cccc4ccc2c1c34`, for which the IC50 entry is listed as “Not Active” and the Ki entry was “Not Active”.

For another assay, the target named is T3, Cysteinyl leukotriene receptor 1 (Homo sapiens, UniProt Q9Y271). Note: in other assays of this panel Not Active means under 50% inhibition at 10 µM.
T3 sequence (Q9Y271 whole entry): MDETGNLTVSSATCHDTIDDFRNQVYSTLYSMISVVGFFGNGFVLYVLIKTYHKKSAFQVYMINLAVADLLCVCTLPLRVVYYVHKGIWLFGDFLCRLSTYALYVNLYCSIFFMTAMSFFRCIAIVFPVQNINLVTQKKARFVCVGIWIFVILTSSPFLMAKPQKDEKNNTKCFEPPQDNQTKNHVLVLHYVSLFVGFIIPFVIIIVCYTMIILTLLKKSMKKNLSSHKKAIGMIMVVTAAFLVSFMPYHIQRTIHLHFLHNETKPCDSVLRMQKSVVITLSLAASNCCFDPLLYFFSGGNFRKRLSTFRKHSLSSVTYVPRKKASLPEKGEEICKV
Assay: not given
It is filed as cell membranes, CHO-K1, Membrane. The note with it: cho-k1.
Turning to OXALIPLATIN, the IC50 entry is recorded as “Not Active” and the Ki result is given as “Not Active”.
`CCCCCCCCCc1ccc(O)cc1` [4-NONYLPHENOL]: the IC50 result was “Not Active”.
On to `c1ccc2c(c1)cc1ccc3cccc4ccc2c1c34`, for which the IC50 result is listed as “Not Active”.

The next assay addresses Melanocortin receptor 4 (Homo sapiens, UniProt P32245).
Assay: not given
The assay is classed as cell membranes, Membrane. The settings on record: hek293.
Consider OXALIPLATIN, for which the IC50 entry is recorded as “Not Active” and the Ki result was “Not Active”.
For `CCCCCCCCCc1ccc(O)cc1` [4-NONYLPHENOL], the IC50 result is “Not Active”.
Same read-out and setting: then `c1ccc2c(c1)cc1ccc3cccc4ccc2c1c34`, with “Not Active”.

Another assay deals with Melanocortin receptor 5 (Homo sapiens, UniProt P33032).
Chain of Melanocortin receptor 5 (P33032 whole entry): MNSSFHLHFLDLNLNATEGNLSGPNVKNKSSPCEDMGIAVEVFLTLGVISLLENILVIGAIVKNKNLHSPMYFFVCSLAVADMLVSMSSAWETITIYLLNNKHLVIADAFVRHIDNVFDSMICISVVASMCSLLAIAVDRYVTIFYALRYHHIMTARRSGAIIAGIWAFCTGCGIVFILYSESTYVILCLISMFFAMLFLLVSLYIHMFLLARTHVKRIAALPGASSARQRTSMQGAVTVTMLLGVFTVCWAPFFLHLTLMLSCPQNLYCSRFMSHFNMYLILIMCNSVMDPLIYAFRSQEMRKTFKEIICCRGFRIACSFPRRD
Assay: not given
The assay is classed as cell membranes, HEK293, Membrane. The note with it: hek293.
With OXALIPLATIN, the IC50 result is given as “Not Active” and the Ki entry is “Not Active”.
Turning to `CCCCCCCCCc1ccc(O)cc1` [4-NONYLPHENOL], the IC50 result was “Not Active”.
Still for that read-out and setting: then `c1ccc2c(c1)cc1ccc3cccc4ccc2c1c34`, with “Not Active”.

A further assay has as its target T4, Caspase-1 (Homo sapiens, UniProt P29466).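 Note: Caspase-1 enzyme inhibition assay with a peptide substrate; in other assays of this panel Not Active means under 50% inhibition at 10 µM.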
T4 sequence (P29466 whole entry): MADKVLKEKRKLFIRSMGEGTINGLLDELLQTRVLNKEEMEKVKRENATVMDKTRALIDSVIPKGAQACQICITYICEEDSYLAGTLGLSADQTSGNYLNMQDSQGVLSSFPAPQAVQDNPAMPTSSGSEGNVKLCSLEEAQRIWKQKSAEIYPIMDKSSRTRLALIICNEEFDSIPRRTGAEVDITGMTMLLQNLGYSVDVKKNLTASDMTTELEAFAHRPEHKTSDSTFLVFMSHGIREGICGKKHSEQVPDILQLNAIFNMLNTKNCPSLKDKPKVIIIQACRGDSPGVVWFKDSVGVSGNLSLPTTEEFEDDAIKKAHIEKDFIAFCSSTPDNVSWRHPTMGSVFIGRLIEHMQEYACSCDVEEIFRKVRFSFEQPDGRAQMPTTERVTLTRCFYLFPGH
Assay: not given
Settings: not given
Further details: species or system Escherichia coli.
OXALIPLATIN: the IC50 entry is “Not Active” and the Ki entry is reported as “Not Active”.
`CCCCCCCCCc1ccc(O)cc1` [4-NONYLPHENOL]: the IC50 result is reported as “Not Active”.
For the compound `c1ccc2c(c1)cc1ccc3cccc4ccc2c1c34`, the IC50 result was “Not Active”.

A further assay deals with T5, Cathepsin G (Homo sapiens, UniProt P08311).
T5 sequence (P08311 whole entry): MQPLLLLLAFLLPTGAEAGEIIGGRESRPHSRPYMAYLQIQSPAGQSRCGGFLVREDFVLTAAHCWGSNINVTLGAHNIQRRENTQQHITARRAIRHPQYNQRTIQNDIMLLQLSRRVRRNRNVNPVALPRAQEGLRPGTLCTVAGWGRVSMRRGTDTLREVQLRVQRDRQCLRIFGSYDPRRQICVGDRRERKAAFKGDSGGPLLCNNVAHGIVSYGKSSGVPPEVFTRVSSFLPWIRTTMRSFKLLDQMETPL
Assay: not given
The assay is classed as tissue-based. The settings on record: neutrophil.
Turning to OXALIPLATIN, the IC50 result is “Not Active” and the Ki result is “Not Active”.
Consider `CCCCCCCCCc1ccc(O)cc1` [4-NONYLPHENOL], for which the IC50 result is recorded as “Not Active”.
On to `c1ccc2c(c1)cc1ccc3cccc4ccc2c1c34`, for which the IC50 entry is listed as “Not Active”.

The target of the next assay is Epidermal growth factor receptor (Homo sapiens, UniProt P00533). The assay is described as follows: DRUGMATRIX: Protein Tyrosine Kinase, EGF Receptor enzyme inhibition (substrate: Poly(Glu:Tyr)). The note with it: insect cells; Not Active = under 50% inhibition at 10 µM. The assay is classed as cell-based, Insect cells.
For the compound OXALIPLATIN, the IC50 entry was “Not Active” and the Ki entry is on record as “Not Active”.
Consider `CCCCCCCCCc1ccc(O)cc1` [4-NONYLPHENOL], for which the IC50 entry was “Not Active”.
The same measure, in the same setting: the result for `c1ccc2c(c1)cc1ccc3cccc4ccc2c1c34` reads “Not Active”.

The target of another assay is Tyrosine-protein kinase Fyn (Homo sapiens, UniProt P06241). The assay is described as follows: biochemical. The settings on record: insect cells. The assay is classed as cell-based, Insect cells.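 Note: enzymatic inhibition of Fyn kinase activity measured with Poly(Glu:Tyr) as the phosphorylation substrate; in other assays of this panel Not Active means under 50% inhibition at 10 µM.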
Chain of Tyrosine-protein kinase Fyn (P06241 whole entry): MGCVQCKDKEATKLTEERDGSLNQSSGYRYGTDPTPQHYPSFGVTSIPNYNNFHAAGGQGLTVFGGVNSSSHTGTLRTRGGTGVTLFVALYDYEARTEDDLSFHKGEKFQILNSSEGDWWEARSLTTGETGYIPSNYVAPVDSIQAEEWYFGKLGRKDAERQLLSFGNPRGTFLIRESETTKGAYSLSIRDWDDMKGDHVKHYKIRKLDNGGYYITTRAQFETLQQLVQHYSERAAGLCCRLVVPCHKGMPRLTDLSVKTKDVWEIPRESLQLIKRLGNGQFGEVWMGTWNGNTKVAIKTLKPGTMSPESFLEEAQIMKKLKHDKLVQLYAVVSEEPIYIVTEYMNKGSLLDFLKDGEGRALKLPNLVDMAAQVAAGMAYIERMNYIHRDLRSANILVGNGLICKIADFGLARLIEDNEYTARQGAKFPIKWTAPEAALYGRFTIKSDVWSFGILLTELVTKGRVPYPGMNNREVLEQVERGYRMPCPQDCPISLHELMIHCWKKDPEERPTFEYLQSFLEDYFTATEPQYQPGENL
Regarding OXALIPLATIN, the IC50 entry is “Not Active” and the Ki entry was “Not Active”.
Consider `CCCCCCCCCc1ccc(O)cc1` [4-NONYLPHENOL], for which the IC50 entry was “Not Active”.

Still in this assay, the particulars now being: read-out: IC50.
As for `c1ccc2c(c1)cc1ccc3cccc4ccc2c1c34`, the IC50 came out at 26.2 µM.

Tested on in a further assay: not listed separately
The assay is described as follows: DRUGMATRIX: Purinergic P2X radioligand binding (ligand: [3H] alpha, beta-Methylene-ATP). It is filed as cell membranes, Oryctolagus cuniculus, New Zealand albino, Urinary bladder, Membrane. The note with it: Not Active = under 50% inhibition at 10 µM.
OXALIPLATIN: the IC50 result is listed as “Not Active” and the Ki result is “Not Active”.
`CCCCCCCCCc1ccc(O)cc1` [4-NONYLPHENOL]: the IC50 result is on record as “Not Active” and the Ki result is “Not Active”.
`c1ccc2c(c1)cc1ccc3cccc4ccc2c1c34`: the IC50 result was “Not Active” and the Ki entry is given as “Not Active”.

A further assay deals with 5-hydroxytryptamine receptor 1B (Rattus norvegicus, UniProt P28564).
Chain of 5-hydroxytryptamine receptor 1B (P28564 whole entry): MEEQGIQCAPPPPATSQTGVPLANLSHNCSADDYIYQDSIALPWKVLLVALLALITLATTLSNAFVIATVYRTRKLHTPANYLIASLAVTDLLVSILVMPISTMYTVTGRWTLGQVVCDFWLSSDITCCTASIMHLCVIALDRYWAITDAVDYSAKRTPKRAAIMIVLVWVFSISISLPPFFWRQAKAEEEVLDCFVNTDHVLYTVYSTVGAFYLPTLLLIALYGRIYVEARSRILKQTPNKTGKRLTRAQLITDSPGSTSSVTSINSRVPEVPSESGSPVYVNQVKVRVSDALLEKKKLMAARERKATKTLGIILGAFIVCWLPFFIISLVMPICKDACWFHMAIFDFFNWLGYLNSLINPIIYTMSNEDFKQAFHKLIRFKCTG
Assay: not given
The assay is classed as cell membranes, Wistar, Cerebral cortex, Membrane.
Settings: not given
Turning to OXALIPLATIN, the IC50 result is recorded as “Not Active” and the Ki entry is “Not Active”.
As for `CCCCCCCCCc1ccc(O)cc1` [4-NONYLPHENOL], the IC50 result is reported as “Not Active”.
Still for that read-out and setting: then `c1ccc2c(c1)cc1ccc3cccc4ccc2c1c34`, with “Not Active”.
